Test results taken from paper PMC8509676, “Residual Helicity at the Active Site of the Histidine Phosphocarrier, HPr, Modulates Binding Affinity to Its Natural Partners” (International Journal of Molecular Sciences, 2021).

What was measured:
[1] = Far-UV CD, helicity from molar ellipticity at 222 nm; assay type: physicochemical; details: 5 °C
Experimental: Spectra were collected on a Jasco J810 spectropolarimeter (Jasco, Tokyo, Japan) interfaced with a Peltier unit. Far-UV measurements were performed with samples placed in quartz cells with a 0.1 cm path length (Hellma, Kruibeke, Belgium), with a response time of 2 s, a band width of 1 nm, and a scan velocity of 50 nm/min. For all peptides, a wide range of concentrations (10–50 µM) was used to determine whether either the shape or the intensity of the spectra was concentration-dependent. None of those features changed in the concentration range explored. The experiments in aqueous solution were acquired at 5 °C in Tris buffer (50 mM, pH 7.0). Raw ellipticity was converted to molar ellipticity, [Θ], from which the fraction of helical populations was determined as previously described. For the experiments in the presence of each protein (repeated three times), the same concentration used in the fluorescence experiments was used, and the experimental set-up was the same as described above for the isolated peptides.

[2] = Translational diffusion NMR (DOSY); assay type: physicochemical
Experimental: (b) Translational diffusion NMR (DOSY): Peptide concentrations were the same as those used in the 1D-^1H-NMR spectra. Translational self-diffusion measurements were performed with the pulsed-gradient spin-echo sequence in the presence of 100% D2O. The following relationship existed between the translational self-diffusion coefficient, D, and the delays used during experiment acquisition:(2) I/I0=−exp(DγH2δ^2G^2(Δ−δ/3−τ/2)) where I is the peak intensity of a particular resonance (or a group of them) at any gradient strength; I0 is the maximum peak intensity of the same resonance(s) at the smallest gradient strength (that is, at 2% of the total power of the gradient coil); D is the translational self-diffusion constant (in cm^2 s^−1); δ is the duration (in s) of the gradient; G is the gradient strength (in T cm^−1); ∆ is the time (in s) between the gradients; γH is the gyromagnetic constant of the proton (in rad s^−1 T^−1); and τ is the recovery delay between the bipolar gradients (100 µs in our experiments). The gradient strength (G) was varied in 16 lineal steps, between 2 and 95% of the total power of the gradient coil of the probe. The gradient strength was calibrated by using the value of D for the residual proton water line in a sample containing 100% D2O placed in a 5 mm tube [42]. Data were plotted as I/I0 versus G^2, and the exponential factor of the curve was:(3) DγH2δ^2(Δ−δ/3−τ/2) from which D can be obtained. The duration of the gradient (δ) was 2.25 ms, and the time between the two gradients (∆) was set to 200 ms. The signal from the methyl groups between 1.1 and 0.70 ppm were used for integration of the intensity. A final concentration of 1% of dioxane was added to each peptide; the hydrodynamic radius, Rh, of each peptide was obtained for comparison by assuming that the Rh of dioxane was 2.12 Å [42]. The DOSY experiment was repeated twice with fresh samples for each peptide.

Ac-GWAEGLHARPASIFVRAATATG-NH2 [Wild-type]
[Θ]^222 (value in parentheses) ([1]; 50 mM Tris pH 7.0): −612.44 deg cm^2 dmol^−1 | Helicity (%) ([1]; 50 mM Tris pH 7.0, from [Θ]^222 assuming −39,500 deg cm^2 dmol^−1 for a fully formed α-helix): 1.6% | D (translational diffusion coefficient) ([2]; DOSY, 10 °C, 100% D2O, 70-120 µM peptide, fitting errors, repeated twice): 1.95 ± 0.03 cm^2 s^−1 × 10^6 | Rh (in parentheses, from DOSY) ([2]; from comparison with the Rh of dioxane (2.12 Å)): 11 ± 1 Å
